Laboratory results reported in publication PMC5909342, “Increasing the bioactive space of peptide macrocycles by thioamide substitution” (Chemical Science, 2018).
Where two headings read alike, the source gives them in different places.

Columns and labels:
αvβ5 integrin = biological target: T1, αvβ5 integrin (Homo sapiens, UniProt P06756+P18084); assay: Competitive solid-phase integrin binding assay (ELISA), vitronectin-αvβ5; conditions: purified integrin, n = 5 ± SEM, read-out: In vitro IC50 αvβ5
T1 construct: purchased Millipore
Experimental: (§1) The initial structure was obtained by following a simulated annealing protocol. […] For the structure of 7-11 (including 9a-9d) explicit solvent box of H2O was used with periodic boundary conditions. A 2 ns restrained molecular dynamics run was then performed. The average conformation over the dynamics run was considered to be the final structure. Competitive solid-phase integrin binding assay The activity of peptide as integrin antagonist was assessed using solid phase integrin binding assay. Following buffers were prepared freshly. […] 96-well plate reader at 492 nm. […] Post-blocking and washing peptides were mixed with biotinylated vitronectin and this mixure was then incubated with coated plates for 2h at room temperature. […] After washing S6

αIIbβ3 integrin = biological target: T2, αIIbβ3 integrin (Homo sapiens, UniProt P05106+P08514); assay: Competitive solid-phase integrin binding assay (ELISA), fibrinogen-αIIbβ3; conditions: purified integrin, n = 5 ± SEM, read-out: In vitro IC50 αIIbβ3
T2 construct: purchased Millipore
Experimental: The inhibitory potency of the peptides to block the association between the extracellular matrix and the integrins overexpressed on cell-surfaces was determined using an in vitro competitive solid phase binding assay.[25] We assessed the affinity of these peptides against the pro-angiogenic αvβ3, αvβ5 and α5β1 integrins, and their selectivity against their αIIbβ3 integrin, which plays an important role in platelet aggregation (Table 1).[26]
integrin was incubated for 1h at room temperature. After washing 1:250 diluted CD41b
antibody was incubated for 1h at room temperature. Anti-mouse IgG-peroxidase antibody
was used as secondary antibody. Binding was visualized using TMB substrate. […]

α5β1 integrin = biological target: T3, α5β1 integrin (Homo sapiens, UniProt P05556+P08648); assay: Competitive solid-phase integrin binding assay (ELISA), fibronectin-α5β1; conditions: purified integrin, n = 5 ± SEM, read-out: In vitro IC50 α5β1
T3 construct: purchased Millipore
Experimental: as §1, with “Binding” for “Post-blocking and washing peptides were mixed with biotinylated vitronectin and this mixure”, “visualized using TMB substrate.” for “then incubated with coated plates for 2h at room temperature.”, “S7” for “After washing S6”

[1] = system: αvβ5 expressing MDA-MB-231 breast cancer cells; assay: Competitive cell-adhesion inhibition assay to vitronectin, MDA-MB-231; format: cell-based, human; conditions: n = 5 ± SEM, read-out: In cellulo IC50 MDA-MB-231
Experimental: To validate our in vitro data and determine the efficacy of the peptides against the pro-angiogenic integrins in a complex cellular milieu, we subjected the peptides to a competitive cell-adhesion assay (Table 1) utilizing MDA-MB-231 human breast cancer cells expressing αvβ5 integrins, and U-87 MG human glioblastoma cells expressing αvβ3, αvβ5 and α5β1 integrins.[27] […] On the other hand, we observed a remarkable correlation between the in vitro affinity of the thioamidated peptides against the purified integrins and their efficacy in cellulo (αvβ5 with MDA-MB-231, and αvβ3 and αvβ5 with U-87 MG). […]
(§2) Cell adhesion inhibition assay […]
(§3) incubated with 0.5% crystal violet for 15 min. Cells were then washed thoroughly with PBS buffer to remove excess of crystal violet. Finally dye was eluted out and dissolved using DMSO and quantification was done at 570 nm. […]
(§4) was dispensed and 5% FBS containing media was added. […]

αvβ3 integrin = biological target: T4, αvβ3 integrin (Homo sapiens, UniProt P05106+P06756); assay: Competitive solid-phase integrin binding assay (ELISA), vitronectin-αvβ3
T4 construct: purchased Millipore
Experimental: as §1

[2] = system: αvβ3, αvβ5 and α5β1 expressing U-87 MG glioblastoma cells; assay: Competitive cell-adhesion inhibition assay to vitronectin, U-87 MG; format: cell-based, human; conditions: n = 5 ± SEM, read-out: In cellulo IC50 U-87 MG
Experimental: To validate our in vitro data and determine the efficacy of the peptides against the pro-angiogenic integrins in a complex cellular milieu, we subjected the peptides to a competitive cell-adhesion assay (Table 1) utilizing MDA-MB-231 human breast cancer cells expressing αvβ5 integrins, and U-87 MG human glioblastoma cells expressing αvβ3, αvβ5 and α5β1 integrins.[27] […]
as §2, §3, §4

[3] = Ex vivo serum stability assay; conditions: human serum ex vivo
[4] = competitive ELISA, purified integrin, n = 5 ± SEM, read-out: In vitro IC50 αvβ3
[5] = from experimental IC50, read-out: pIC50 against αvβ3, Table S22 (converted)

Row | Compound | IC50 (αvβ5 integrin) | IC50 (αIIbβ3 integrin) | IC50 (α5β1 integrin) | IC50 [1] | IC50 (αvβ3 integrin; [4]) | IC50 [2] | IC50 (αvβ3 integrin; [5]) | Fold difference in αvβ3 affinity (αvβ3 integrin; 9b versus 7 (differ only in chirality of Phe)) | Fold enhancement of affinity and efficacy in comparison to 9 (αvβ3 integrin; 9b versus 9, pro-angiogenic integrins) | Fraction of peptide intact at 72 h [3]
1 | CC(C)[C@@H]1NC(=S)[C@@H](Cc2ccccc2)NC(=O)[C@H](CC(=O)O)NC(=O)CNC(=O)[C@H](CCCNC(=N)N)NC1=O [Compound 7] | 0.7 ± 0.2 nM | > 10 µM | 1.3 ± 0.6 nM | 4 ± 2 nM | 372 ± 52 nM | 326 ± 97 nM | – | – | – | –
2 | CC(C)[C@@H]1NC(=O)[C@@H](Cc2ccccc2)NC(=O)[C@H](CC(=O)O)NC(=O)CNC(=S)[C@H](CCCNC(=N)N)NC1=O [Compound 9] | > 10000 nM | > 10 µM | 53 ± 42 nM | > 100000 nM | > 100000 nM | > 100000 nM | > 100000 nM | – | – | –
3 | CC(C)[C@@H]1NC(=O)[C@H](Cc2ccccc2)NC(=O)[C@@H](CC(=O)O)NC(=O)CNC(=O)[C@H](CCCNC(=N)N)NC1=S [Compound 9a] | – | – | – | 11 ± 9 nM | – | 40 ± 28 nM | – | – | – | –
4 | CC(C)[C@@H]1NC(=S)[C@H](Cc2ccccc2)NC(=O)[C@H](CC(=O)O)NC(=O)CNC(=O)[C@H](CCCNC(=N)N)NC1=O [Compound 9b] | 1.6 ± 0.3 nM | > 100 µM | 2 ± 0.4 nM | 1 ± 0.1 nM | 0.2 ± 0.1 nM | 1.6 ± 0.6 nM | 0.2 nM | > 10^3 fold | ~10^5 fold | 1/4
5 | CC(C)[C@@H]1NC(=O)[C@H](Cc2ccccc2)NC(=S)[C@H](CC(=O)O)NC(=O)CNC(=O)[C@@H](CCCNC(=N)N)NC1=O [Compound 9c] | > 10000 nM | > 100 µM | 461 ± 246 nM | > 100000 nM | > 100000 nM | > 100000 nM | – | – | – | –
6 | CC(C)[C@H]1NC(=O)[C@H](Cc2ccccc2)NC(=O)[C@H](CC(=O)O)NC(=S)CNC(=O)[C@H](CCCNC(=N)N)NC1=O [Compound 9d] | > 10000 nM | > 100 µM | 104 ± 95 nM | > 100000 nM | 584 ± 504 nM | > 100000 nM | – | – | – | –
7 | CC(C)[C@@H]1NC(=O)[C@@H](Cc2ccccc2)NC(=O)[C@H](CC(=O)O)NC(=S)CNC(=O)[C@H](CCCNC(=N)N)NC1=O [Compound 10] | > 100000 nM | > 100 µM | > 100000 nM | > 100000 nM | 252 ± 200 nM | > 100000 nM | – | – | – | –
8 | CC(C)[C@@H]1NC(=O)[C@@H](Cc2ccccc2)NC(=S)[C@H](CC(=O)O)NC(=O)CNC(=O)[C@H](CCCNC(=N)N)NC1=O [Compound 11] | 1.3 ± 1 nM | > 100 µM | 62 ± 45 nM | 4.2 ± 4 nM | 72 ± 63 nM | 96 ± 77 nM | – | – | – | 1/4
9 | CC(C)[C@@H]1NC(=O)[C@H](Cc2ccccc2)NC(=O)[C@H](CC(=O)O)NC(=O)CNC(=O)[C@H](CCCNC(=N)N)NC1=O [Compound 12, cyclo(RGDFV)] | – | – | – | > 100000 nM | – | > 100000 nM | – | – | – | –
